Where “and” joins values, the source holds several entries; their conditions need not be identical. Equal values may be shown once.
How the values were obtained:
[1] = system: NIH3T3 cells control (empty vector) or knock-down (KD) for N-CoR1; experiment: CMA activity in NIH3T3 control or knock-down for N-CoR1; type: cell-based, mouse; parameters: CMA activity: unit not given here; conditions: for activating effect on CMA upon knock-down of NCOR1: 20μM for 24 h; for CMA activity: Fig. 2h, individual replicate values
Protocol: NIH3T3 mouse fibroblasts (CRL-1658), CaCo2 cells human colorectal adenocarcinoma (HTB-3), and the N2a neuroblastoma cell line (CCL-131) were obtained from the American Type Culture Collection and were validated by genomic PCR. Primary human fibroblasts (GM01651) were from Coriell Repository. Cells were cultured to full confluence in a 37 °C incubator with 5% CO2 in complete Dulbecco’s modified Eagle’s medium (DMEM, Sigma #D5030) supplemented with 10% heat-inactivated newborn calf serum (HyClone #SH30401.02HI), 1% penicillin/streptomycin/fungizone (Invitrogen, #10072322). All the cell lines were tested for mycoplasma contamination using DNA staining protocol with Hoechst 33258 dye and none of them was found positive. Knock-down of Ncor1 was done using lentiviral mediated shRNA (SHCLNG-NM_011308) from the Sigma Mission library following standard procedures. The efficiency of knock-down was tested by immunoblot. Cell viability was measured using the CellTiter-Blue kit (Promega, #G9241) 24 h after the addition of the different stressors according to the manufacturer’s instructions. All cell lines were validated by genomic PCR.
Cells were transduced with lentivirus carrying the KFERQ-PS-Dendra reporter as before. Cells were photoactivated by exposure to a 3.5 mA (current constant) light emitting diode (LED: Norlux, 405 nm) for 3 min and then plated in glass-bottom 96 well plates. At the desired times, cells were fixed with 4% PFA and imaged using high-content microscopy (Operetta system, Perkin Elmer). Images were quantified using the manufacturer’s software in a minimum of 1,200 cells in 9 independent fields per well. […] This was particularly important in the case of primary human cells where the efficiency of transduction was ~65%. To avoid confounding effects for drug-induced changes in cell volume or adherence to the plate that could bring a fraction of the cells per field outside of focus, we set a threshold to count only […] that have at least 1/10 of the average number of […] detected in the untreated wells for each cell type (3–4 puncta/cell in the case of NIH3T3 and N2a cells and 5 puncta/cell in primary human fibroblasts).

[2] = system: KFERQ-Dendra mice; experiment: CMA activity in tissues of KFERQ-Dendra mice;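 on % cells: percentage of blood CD4+ T cells with more than 3 CMA puncta per cell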; type: in vivo, mouse; parameters: Fig. 3g value / Fig. 3g value, Mean 2: unit not given here; conditions: for Fig. 3g value, Mean 2: group mean of the test details, n 6; for Fig. 3g value / % cells: single replicate values; for % cells: Fig. 3d; for fluorescent Dendra+ puncta in liver: KFERQ-Dendra mice, i.p. 30 mg/kg bw daily for 3 days; for number of Dendra+ puncta per cell in retina (Fig. 4f), average / number of Dendra+ puncta per cell in retina (Fig. 4f), individual fields: flat-mounted retinas; for number of Dendra+ puncta per MAP2 + cell (Fig. 4b), individual sections: hippocampus (CA1 region), i.p. 30 mg/kg bw daily for three consecutive days
Protocol: C57BL/6 J mice wild-type (WT) and homozygous for the Pde6 mutation (rd10 mouse model of retinal degeneration) were obtained from The Jackson Laboratory and experiments were performed at the age indicated in each part of the study. C57BL/6 KFERQ-Dendra mice were generated by back-crossing FVB KFERQ-Dendra mice with wild-type C57BL/6 mice for 8 generations. Both male and female animals were used in this study in equally distribution groups. However, results from both sexes were pooled, because of absence of significant differences in any of the parameters analyzed after statistical analysis with a mixed model of two-way ANOVA sex and treatment as independent variables and the corresponding measure as dependent variable. All animals were housed in a barrier-controlled facility (19–23 °C 30–60% relative humidity; 12 h light/dark cycle) with ad libitum access to standard chow pellets (protein 19 gm%/carbohydrate 67 gm%/fat 4 gm%) and water. For animal administration of CA compounds, a formula containing 30% PEG 400 (Sigma, #8.0745), 65% of 5% glucose solution, 5% Tween 80 (Sigma, #P1754) was used to dissolve them. CA compounds were prepared freshly by adding 5% DMSO and sonicating for 1 h. Treatment of KFERQ-Dendra mice with the CA compounds was done at 4 months of age by i.p. daily injection of 30 mg/kg bw or vehicle for three consecutive days and tissues collected 6 h after the last injection. In the case of rd10 mice, animals were daily injected from P18 to P25 with CA77 (40 mg/kg bw). In the case of intravitreal administration, a single intravitreal injection was applied at P18 with CA77 (40 µM) in DMSO/PBS and the contralateral eye was injected with PBS and DMSO at same concentration. At P26, mice were sacrificed and eyes fixed overnight with 4% PFA (Sigma, #P6148) in PBS at 4 °C for immunofluorescence or retinas dissected and immediately frozen for biochemistry. Distribution of animals in the vehicle or treatment group was done randomly. ICR (CD-1) outbred 3 months old male mice from ENVIGO were used for the pharmacokinetic studies (see pharmacokinetic section for housing and handling details). All animal studies and procedures complied with ethical regulations, were performed in accordance with the European Union guidelines and the ARVO Statement for the Use of Animals in Ophthalmic and Vision Research and were approved by the Institutional Animal Care and Use Committee at the Albert Einstein College of Medicine, the CSIC Bioetica Comite and approved by the Comunidad de Madrid, PROEX232/17.
All mice were perfused with PBS. Livers were post-fixed overnight at 4 °C in picric acid fixation buffer (2% formaldehyde, 0.2% picric acid in PBS, pH7.0) and then washed with 70% ethanol, followed by two washes in PBS. Livers were immersed in 30% sucrose and then embedded in OCT for sectioning in a cryostat (Leica CM3050 S). After airdrying for 30 min, sections were stored at −20 °C until use. Brains were post-fixed for 12 h in 4% paraformaldehyde, cryoprotected in PBS containing 20% sucrose before being frozen by immersion in a cold isopentane bath (−50 °C), and stored immediately at −80 °C until sectioning. Brains were also sectioned in a cryostat at −20 °C in coronal 40 μm-thick free-floating sections. Immunostainings were performed after permeabilization of the sections with 0.3% Triton X-100 in PBS for 30 minutes at RT followed by blocking (10% normal goat serum, 2% Triton X-100 in PBS) and subsequent incubation with the primary and appropriate anti-species secondary antibody. Cell nuclei were stained using Hoechst (Life Technologies, 33342) at 1:5000 for 30 s (in retina) or 10 min (in brain sections) prior to mounting. Images were acquired with a Leica confocal TCS-SP8 (Leica Microsystem) using an HCX Plan Apo CS ×63.0 1.40 NA oil objective and the Leica Application Suite X (LAS X). Puncta was quantified using ImageJ Software (NIH)[38] after thresholding. […]

[3] = In vitro stability in human liver microsomes; type: in vitro ADME; conditions: in words
Protocol: In vitro solubility in the following conditions A) HBSS/HEPES 10 mM/BSA 0.1% pH 6 B) HBSS/HEPES 10 mM/BSA 0.1% pH 7.4 C) TRIS/BSA 0.1% PBS (pH 7.4 and at indicated doses were measured by Nephelometry using the NEPHELOstar Galaxy apparatus (BMG Lab Technologies). In vitro stability in human, mouse and rat liver microsomes and permeability using a bidirectional permeability assay with CaCo-2 cells (pH 6.5/7.4) assays were performed with standard methodology and analyzed by LC-MS/MS. at SIMM-SERVIER joint Biopharmacy Laboratory. ADME properties for CA39 and CA77 were predicted by QikProp (Schrödinger, LLC, Releases 2016-2020) software.

[4] = i.p. 30 mg/kg bw daily for three days
[5] = i.p. 30 mg/kg bw daily for three days, 30 mg/kg

Compound	activating effect on CMA upon knock-down of NCOR1 [1]	CMA activity ([1]; Ctr cells)	CMA activity ([1]; NCOR(-) (NCoR1 KD) cells)	Fig. 3g value, Mean 2 [2]	Fig. 3g value [2]	% cells [2]	fluorescent Dendra+ puncta in liver [2]	number of Dendra+ puncta per cell in retina (Fig. 4f), average [2, 4]	number of Dendra+ puncta per cell in retina (Fig. 4f), individual fields [2, 5]	number of Dendra+ puncta per MAP2 + cell (Fig. 4b), individual sections ([2]; 30 mg/kg)	number of Dendra+ puncta in individual TH+ cells (Fig. S8d) ([2]; midbrain substantia nigra, i.p. 30 mg/kg bw daily for three days, 30 mg/kg)	metabolic stability with human liver microsomes [3]
Clc1ccc2c(c1)OCC(c1ccc(-c3ccccc3)cc1)=N2 [CA39]	completely ablated	28.3 and 30.0 and 31.5	3.7 and 5.0 and 5.1	20	16.28 and 30.33 and 23.44 and 14.29 and 16.39 and 19.29	21% and 39% and 30% and 21.8% and 22.6% and 12.2% and 9.5% and 24.2% and 12.8% and 21.2%	significant increase in the number of fluorescent Dendra^+ puncta	1.185 puncta/cell	1.154 puncta/cell and 0.857 puncta/cell and 0.867 puncta/cell and 0.700 puncta/cell and 1.556 puncta/cell and 1.350 puncta/cell and 1.500 puncta/cell and 0.737 puncta/cell and 1.385 puncta/cell and 0.958 puncta/cell and 0.950 puncta/cell and 2.000 puncta/cell and 1.182 puncta/cell and 1.400 puncta/cell	20 and 22 and 18 and 25 and 16 and 15 and 12 and 10	27 and 32 and 4 and 2 and 55 and 34 and 23 and 3 and 21 and 1 and 48 and 38 and 6 and 39 and 22 and 45 and 12 and 35	high to intermediate
CC(=O)Nc1ccc(C2=Nc3ccc(Cl)cc3OC2)cc1 [CA77]	completely ablated	22.4 and 17.9 and 26.0	4.3 and 4.0 and 4.8	17.33	10 and 12 and 22 and 23 and 19 and 18	9% and 28% and 12% and 18% and 22% and 17% and 32% and 26%	significant increase in the number of fluorescent Dendra^+ puncta	1.396 puncta/cell	1.250 puncta/cell and 1.040 puncta/cell and 1.583 puncta/cell and 1.063 puncta/cell and 1.100 puncta/cell and 1.667 puncta/cell and 1.375 puncta/cell and 1.846 puncta/cell and 1.000 puncta/cell and 1.750 puncta/cell and 1.684 puncta/cell	22 and 17 and 15 and 26 and 12 and 18 and 9 and 5		high to intermediate

Reference: publication PMC9304322, “Targeting retinoic acid receptor alpha-corepressor interaction activates chaperone-mediated autophagy and protects against retinal degeneration” (Nature Communications, 2022)
